Measured values: US20150119395A1, “NOVEL TRIAZOLE COMPOUNDS THAT MODULATE HSP90 ACTIVITY” (SYNTA PHARMACEUTICALS CORP., priority 2012, published 2015)

test system: Her2; experiment: Her2 degradation in BT-474 cells, in-cell western (ICW), Method 2; assay type: cell-based, human; settings: BT-474 cells, 24 hours, Her2 signal normalized to DRAQ5; read-out: Her2 IC50 range of compounds of the invention for inhibition of Hsp90
Description: Human BT474 (HTB-20), SK-BR-3 (HTB-30) and MCF-7 breast carcinoma cells (HTB-22) from American Type Culture Collection, VA, USA were grown in Dulbecco's modified Eagle's medium with 4 mM L-glutamine and antibiotics (100 IU/ml penicillin and 100 μg/ml streptomycine; GibcoBRL). To obtain exponential cell growth, cells were trypsinized, counted and seeded at a cell density of 0.5×10^6 cells/ml regularly, every 3 days. All experiments were performed on day 1 after cell passage.
BT-474 cells were plated in the interior 60 wells of a 96 well black clear bottom plate (20,000 cells/well) in DMEM medium, with DMEM media in the surrounding 36 wells, and incubated at 37° C. with 5% CO2 overnight. On the second day, concentration response curve source plates were produced (10 point, 3-fold dilution of compounds in DMSO) followed by a 1:30 dilution in an intermediate dilution plate containing DMEM. Compound was transferred from the intermediate plate to the cell plate at a dilution of 1:10. The cells were incubated at 37° C. with 5% CO2 for 24 hours.
Cells were fixed in 4% phosphate buffered paraformaldehyde for 30 minutes at room temperature and then permeabilized by washing five times with 0.1% Triton X-100 in PBS for 5 minutes at room temperature on a shaker. Cells were blocked with Odyssey Blocking Buffer (LI-COR, #927-40000) on a shaker at room temperature for 1.5 hours followed by incubation with Her2 antibody (CST, #2165) diluted 1:400 in blocking buffer overnight on a shaker at 4° C. Cells were washed five times with 0.1% Tween-20 in PBS for 5 minutes at room temperature on a shaker and incubated with fluorescently labeled secondary antibody (LI-COR, #926-32211) diluted 1:1000 in blocking buffer, and DRAQ5 nuclear stain (Biostatus Limited, #DRAQ5) diluted 1:10,000, at room temperature on a shaker for 1 hour. Cells were washed 5 times with 0.1% Tween-20 in PBS for 5 minutes at room temperature on a shaker and imaged on a LI-COR Odyssey imaging station. The raw data was normalized to DRAQ5 and the Her2 EC50 were calculated using XLfit.

Point of comparison: CC(C)c1cc(-c2nnc(-c3cccc(O)c3)n2-c2ccc(N3CCOCC3)cc2)c(O)cc1O [Compound 8, 4-(5-(3-hydroxyphenyl)-4-(4-morpholinophenyl)-4H-1,2,4-triazol-3-yl)-6-isopropylbenzene-1,3-diol], IC50 143 nM. Against it:
- CC(C)c1cc(-c2nnc(-c3cc(C(C)C)c(O)cc3O)n2-c2ccc(N3CCN(C)CC3)cc2)c(O)cc1O [Compound 1, 6,6′-(4-(4-(4-methylpiperazin-1-yl)phenyl)-4H-1,2,4-triazole-3,5-diyl)bis(4-isopropylbenzene-1,3-diol)] — 24-fold higher, 3500 nM
- CC(C)c1cc(-c2nnc(-c3ccncc3)n2-c2ccc(N3CCN(C)CC3)cc2)c(O)cc1O [Compound 2, 4-isopropyl-6-(4-(4-(4-methylpiperazin-1-yl)phenyl)-5-(pyridin-4-yl)-4H-1,2,4-triazol-3-yl)benzene-1,3-diol] — 16-fold higher, 2280 nM
- CC(C)c1cc(-c2nnc(-c3ccccc3O)n2-c2ccc(N3CCN(C)CC3)cc2)c(O)cc1O [Compound 3, 4-(5-(2-hydroxyphenyl)-4-(4-(4-methylpiperazin-1-yl)phenyl)-4H-1,2,4-triazol-3-yl)-6-isopropylbenzene-1,3-diol] — 36-fold higher, 5160 nM
- CC(C)c1cc(-c2nnc(-c3cccc(O)c3)n2-c2ccc(N3CCN(C)CC3)cc2)c(O)cc1O [Compound 4, 4-(5-(3-hydroxyphenyl)-4-(4-(4-methylpiperazin-1-yl)phenyl)-4H-1,2,4-triazol-3-yl)-6-isopropylbenzene-1,3-diol] — 3.8-fold higher, 543 nM
- CC(C)c1cc(-c2nnc(-c3ccccn3)n2-c2ccc(N3CCN(C)CC3)cc2)c(O)cc1O [Compound 5, 4-isopropyl-6-(4-(4-(4-methylpiperazin-1-yl)phenyl)-5-(pyridin-2-yl)-4H-1,2,4-triazol-3-yl)benzene-1,3-diol] — 3.8-fold higher, 543 nM
- CC(C)c1cc(-c2nnc(-c3cnccn3)n2-c2ccc(N3CCN(C)CC3)cc2)c(O)cc1O [Compound 6, 4-isopropyl-6-(4-(4-(4-methylpiperazin-1-yl)phenyl)-5-(pyrazin-2-yl)-4H-1,2,4-triazol-3-yl)benzene-1,3-diol] — 24-fold higher, 3400 nM
- CC(C)c1cc(-c2nnc(-c3cccc(O)c3)n2-c2ccc(CN3CCN(C)CC3)cc2)c(O)cc1O [Compound 7, 4-(5-(3-hydroxyphenyl)-4-(4-((4-methylpiperazin-1-yl)methyl)phenyl)-4H-1,2,4-triazol-3-yl)-6-isopropylbenzene-1,3-diol] — within 1.5-fold, 123 nM

same assay, conditions: Table 3; read-out: EC50 range for Her2 degradation

Point of comparison: CC(C)c1cc(-c2nnc(-c3cccnc3)n2-c2cccnc2)c(O)cc1O [Compound 12, 4-(4,5-di(pyridin-3-yl)-4H-1,2,4-triazol-3-yl)-6-isopropylbenzene-1,3-diol], EC50 1000 nM. Against it:
- CC(C)c1cc(-c2nnc(-c3cccc(O)c3)n2-c2ccccc2)c(O)cc1O [Compound 9, 4-(5-(3-hydroxyphenyl)-4-phenyl-4H-1,2,4-triazol-3-yl)-6-isopropylbenzene-1,3-diol] — lower, < 200 nM
- CC(C)c1cc(-c2nnc(-c3cccc(O)c3)n2-c2ccc(CN3CCOCC3)cc2)c(O)cc1O [Compound 10, 4-(5-(3-hydroxyphenyl)-4-(4-(morpholinomethyl)phenyl)-4H-1,2,4-triazol-3-yl)-6-isopropylbenzene-1,3-diol] — 17-fold lower, 60 nM
- CC(C)c1cc(-c2nnc(-c3cccc(O)c3)n2-c2cccnc2)c(O)cc1O [Compound 11, 4-(5-(3-hydroxyphenyl)-4-(pyridin-3-yl)-4H-1,2,4-triazol-3-yl)-6-isopropylbenzene-1,3-diol] — 3.3-fold lower, 300 nM
- CC(C)c1cc(-c2nnc(-c3cccnc3)n2-c2ccc(CN3CCOCC3)cc2)c(O)cc1O [Compound 13, 4-isopropyl-6-(4-(4-(morpholinomethyl)phenyl)-5-(pyridin-3-yl)-4H-1,2,4-triazol-3-yl)benzene-1,3-diol] — 10-fold lower, 100 nM
- CC(C)c1cc(-c2nnc(-c3cc4ccccc4[nH]3)n2-c2ccccc2)c(O)cc1O [Compound 14, 4-(5-(1H-indol-2-yl)-4-phenyl-4H-1,2,4-triazol-3-yl)-6-isopropylbenzene-1,3-diol] — 40-fold lower, 25 nM
- CC(C)c1cc(-c2nnc(-c3cccnc3)n2-c2ccccc2)c(O)cc1O [Compound 15, 4-isopropyl-6-(4-phenyl-5-(pyridin-3-yl)-4H-1,2,4-triazol-3-yl)benzene-1,3-diol] — lower, < 200 nM
- CC(C)c1cc(-c2nnc(-c3cccnc3)n2-c2ccc(CN3CCN(C)CC3)cc2)c(O)cc1O [Compound 16, 4-isopropyl-6-(4-(4-((4-methylpiperazin-1-yl)methyl)phenyl)-5-(pyridin-3-yl)-4H-1,2,4-triazol-3-yl)benzene-1,3-diol] — 56-fold lower, 18 nM
- CC(C)c1cc(-c2nnc(-c3cccnc3)n2-c2ccc(N3CCOCC3)cc2)c(O)cc1O [Compound 17, 4-isopropyl-6-(4-(4-morpholinophenyl)-5-(pyridin-3-yl)-4H-1,2,4-triazol-3-yl)benzene-1,3-diol] — 26-fold lower, 38 nM
- COc1cc(O)c(-c2nnc(-c3cccnc3)n2-c2ccc(CN3CCOCC3)cc2Cl)cc1C(C)C [Compound 18, 2-(4-(2-chloro-4-(morpholinomethyl)phenyl)-5-(pyridin-3-yl)-4H-1,2,4-triazol-3-yl)-4-isopropyl-5-methoxyphenol] — 5-fold higher, 5000 nM
- CCN1CCN(Cc2ccc(-n3c(-c4cccnc4)nnc3-c3cc(C(C)C)c(O)cc3O)c(Cl)c2)CC1 [Compound 19, 4-(4-(2-chloro-4-((4-ethylpiperazin-1-yl)methyl)phenyl)-5-(pyridin-3-yl)-4H-1,2,4-triazol-3-yl)-6-isopropylbenzene-1,3-diol] — 19-fold lower, 52 nM
- COc1cc(O)c(-c2nnc(-c3cccnc3)n2-c2ccc(CN3CCN(C)CC3)cc2)cc1C(C)C [Compound 20, 4-isopropyl-5-methoxy-2-(4-(4-((4-methylpiperazin-1-yl)methyl)phenyl)-5-(pyridin-3-yl)-4H-1,2,4-triazol-3-yl)phenol] — 2.1-fold higher, 2090 nM
- CC(C)c1cc(-c2ccc(-c3cccnc3)n2-c2ccc(N3CCOCC3)cc2)c(O)cc1O [Compound 21, 4-isopropyl-6-(1-(4-morpholinophenyl)-5-(pyridin-3-yl)-1H-pyrrol-2-yl)benzene-1,3-diol] — 25-fold lower, 40 nM
- COc1ccc(-c2[nH]nc(-c3cc(C(C)C)c(O)cc3O)c2-c2ccc(OC)cc2)cc1 [Compound 22, 4-(4,5-bis(4-methoxyphenyl)-1H-pyrazol-3-yl)-6-isopropylbenzene-1,3-diol] — not separable, > 200 nM
- COc1ccc(-c2cnc(-c3cc(C(C)C)c(O)cc3O)n2-c2ccc(N3CCOCC3)nc2)cc1 [Compound 23, 4-isopropyl-6-(5-(4-methoxyphenyl)-1-(6-morpholinopyridin-3-yl)-1H-imidazol-2-yl)benzene-1,3-diol] — lower, < 200 nM
- COc1ccc(-c2cnc(-c3cc(C(C)C)c(O)cc3O)n2-c2ccc(CN3CCN(C)CC3)cc2)cc1 [Compound 24, 4-isopropyl-6-(5-(4-methoxyphenyl)-1-(4-((4-methylpiperazin-1-yl)methyl)phenyl)-1H-imidazol-2-yl)benzene-1,3-diol] — lower, < 200 nM
